Among the data in US11851426B2, “Bicyclic amines as CDK2 inhibitors” (Incyte Corporation, priority 2019, dated 2023) are IC50 values, retold here.

Some results are limits rather than exact numbers.

In the test the target is CDK2/Cyclin E1 (Homo sapiens (Human), UniProt P24941). As to the kind of experiment: CDK2/Cyclin E1 HTRF enzyme activity assay. The test is classed as biochemical. The note with it: 1 mM ATP; CDK2/Cyclin E1 0.25 nM; 60 minutes at room temperature. How it is done: Example A. CDK2/Cyclin E1 HTRF Enzyme Activity Assay
CDK2/Cyclin E1 enzyme activity assays utilize full-length human CDK2 co-expressed as N-terminal GST-tagged protein with FLAG-Cyclin E1 in a baculovirus expression system (Carna Product Number 04-165). Assays were conducted in white 384-well polystyrene plates in a final reaction volume of 8 μL. CDK2/Cyclin E1 (0.25 nM) was incubated with the compounds of the Examples (40 nL serially diluted in DMSO) in the presence of ATP (50 μM or 1 mM) and 50 nM ULight™-labeled eIF4E-binding protein 1 (THR37/46) peptide (PerkinElmer) in assay buffer (containing 50 mM HEPES pH 7.5, 1 mM EGTA, 10 mM MgCl2, 2 mM DTT, 0.05 mg/mL BSA, and 0.01% Tween 20) for 60 minutes at room temperature. The reactions were stopped by the addition of EDTA and Europium-labeled anti-phospho-4E-BP1 antibody (PerkinElmer), for a final concentration of 15 mM and 1.5 nM, respectively. HTRF signals were read after 1 hour at room temperature on a PHERAstar FS plate reader (BMG Labtech). Data was analyzed with IDBS XLFit and GraphPad Prism 5.0 software using a three or four parameter dose response curve to determine IC50 for each compound.
A general note: Time-resolved FRET reads energy transfer from a long-lived donor to a nearby acceptor.
As a reminder, the IC50 is the concentration that inhibits the measured activity by half. `CS(=O)(=O)N1CCC(Nc2nc3c(-c4cccc(C(F)(F)F)c4)c(-c4cn[nH]c4)ncn3n2)CC1` [Example 35, N-(1-(methylsulfonyl)piperidin-4-yl)-7-(1H-pyrazol-4-yl)-8-(3-(trifluoromethyl)phenyl)-[1,2,4]triazolo[1,5-c]pyrimidin-2-amine] yielded an IC50 of no more than 20 nM.

`CS(=O)(=O)N1CCC(Nc2nc3c(-c4ccc(C#N)c(F)c4)c(-c4cn[nH]c4)ncn3n2)CC1` [Example 36, 2-fluoro-4-(2-((1-(methylsulfonyl)piperidin-4-yl)amino)-7-(1H-pyrazol-4-yl)-[1,2,4]triazolo[1,5-c]pyrimidin-8-yl)benzonitrile] had a concentration for half-maximal inhibition (IC50) of no more than 20 nM.

The molecule `CCCc1c(-c2cn[nH]c2)ccn2nc(NC3CCN(S(C)(=O)=O)CC3)nc12` [Example 37, N-(1-(methylsulfonyl)piperidin-4-yl)-8-propyl-7-(1H-pyrazol-4-yl)-[1.2.4]triazolo[1,5-a]pyridin-2-amine] showed a 50% inhibitory concentration (IC50) of no more than 20 nM.

As for `CC(C)Oc1c(-c2cn[nH]c2)ncn2nc(N[C@H]3CCN(S(=O)(=O)CCN4CCCC4)C[C@H]3C)nc12` [Example 38, 8-isopropoxy-N-((3R,4S)-3-methyl-1-((2-(pyrrolidin-1-yl)ethyl)sulfonyl)piperidin-4-yl)-7-(1H-pyrazol-4-yl)-[1,2,4]triazolo[1,5-c]pyrimidin-2-amine], the IC50 is no more than 20 nM.

`C[C@@H]1CN(S(C)(=O)=O)CC[C@@H]1Nc1nc2c(OC3CCC(F)(F)CC3)c(-c3cn[nH]c3)ccn2n1` [Example 39, 8-((4,4-difluorocyclohexyl)oxy)-N-((3R,4S)-3-methyl-1-(methylsulfonyl)piperidin-4-yl)-7-(1H-pyrazol-4-yl)-[1,2,4]triazolo[1,5-a]pyridin-2-amine] came in with a half-inhibitory concentration (IC50) of no more than 20 nM.

Molecule `C[C@@H]1CN(S(C)(=O)=O)CC[C@@H]1Nc1nc2c(OC3CCOC3)c(-c3cn[nH]c3)ccn2n1` (stereo partly drawn) [Example 40, N-((3R,4S)-3-methyl-1-(methylsulfonyl)piperidin-4-yl)-7-(1H-pyrazol-4-yl)-8-((tetrahydrofuran-3-yl)oxy)-[1,2,4]triazolo[1,5-a]pyridin-2-amine] came in with an IC50 of no more than 20 nM.

As for `[2H]C([2H])([2H])C([2H])([2H])Oc1c(-c2cn[nH]c2)ccn2nc(N[C@H]3CCN(S(C)(=O)=O)C[C@H]3C)nc12` [Example 41, 8-(ethoxy-d5)-N-((3R,4S)-3-methyl-1-(methylsulfonyl)piperidin-4-yl)-7-(1H-pyrazol-4-yl)-[1,2,4]triazolo[1,5-a]pyridin-2-amine], the IC50 was no more than 20 nM.

Take `C[C@@H]1CN(S(C)(=O)=O)CC[C@@H]1Nc1nc2c(OC3CCOCC3)c(-c3cn[nH]c3)ccn2n1` [Example 42, N-((3R,4S)-3-methyl-1-(methylsulfonyl)piperidin-4-yl)-7-(1H-pyrazol-4-yl)-8-((tetrahydro-2H-pyran-4-yl)oxy)-[1,2,4]triazolo[1,5-a]pyridin-2-amine]: the IC50 is no more than 20 nM.

With `CC(C)Oc1c(-c2cn[nH]c2)ccn2nc(N[C@H]3CCN(S(C)(=O)=O)C[C@H]3C)nc12` [Example 43, 8-isopropoxy-N-((3R,4S)-3-methyl-1-(methylsulfonyl)piperidin-4-yl)-7-(1H-pyrazol-4-yl)-[1,2,4]triazolo[1,5-a]pyridin-2-amine], the 50% inhibitory concentration (IC50) was no more than 20 nM.

In turn, `CC(C)COc1c(-c2cn[nH]c2)ncn2nc(NC3CCN(S(C)(=O)=O)CC3)nc12` [Example 44, 8-Isobutoxy-N-(1-(methylsulfonyl)piperidin-4-yl)-7-(1H-pyrazol-4-yl)-[1,2,4]triazolo[1,5-c]pyrimidin-2-amine] registered an IC50 of no more than 20 nM.

The molecule `CS(=O)(=O)N1CCC(Nc2nc3c(OCC(F)F)c(-c4cn[nH]c4)ncn3n2)CC1` [Example 45, 8-(2,2-difluoroethoxy)-N-(1-(methylsulfonyl)piperidin-4-yl)-7-(1H-pyrazol-4-yl)-[1,2,4]triazolo[1,5-c]pyrimidin-2-amine] had an IC50 of no more than 20 nM.

In turn, `CS(=O)(=O)N1CCC(Nc2nc3c(OCCC(F)(F)F)c(-c4cn[nH]c4)ncn3n2)CC1` [Example 46, N-(1-(Methylsulfonyl)piperidin-4-yl)-7-(1H-pyrazol-4-yl)-8-(3,3,3-trifluoropropoxy)-[1,2,4]triazolo[1,5-c]pyrimidin-2-amine] yielded an IC50 of no more than 20 nM.

Regarding `CCCCOc1c(-c2cn[nH]c2)ncn2nc(NC3CCN(S(C)(=O)=O)CC3)nc12` [Example 47, 8-Butoxy-N-(1-(methylsulfonyl)piperidin-4-yl)-7-(1H-pyrazol-4-yl)-[1.2.4]triazolo[1,5-c]pyrimidin-2-amine], the 50% inhibitory concentration (IC50) was no more than 20 nM.

`CCCOc1c(-c2cn[nH]c2)ncn2nc(NC3CCN(S(C)(=O)=O)CC3)nc12` [Example 48, N-(1-(Methylsulfonyl)piperidin-4-yl)-8-propoxy-7-(1H-pyrazol-4-yl)-[1.2.4]triazolo[1,5-c]pyrimidin-2-amine]: the IC50 is no more than 20 nM.

Molecule `CS(=O)(=O)N1CCC(Nc2nc3c(N4CCCCC4)c(-c4cn[nH]c4)ncn3n2)CC1` [Example 49, N-(1-(Methylsulfonyl)piperidin-4-yl)-8-(piperidin-1-yl)-7-(1H-pyrazol-4-yl)-[1,2,4]triazolo[1,5-c]pyrimidin-2-amine] displayed a half-maximal inhibitory concentration (IC50) of no more than 20 nM.

`CC1CN(S(C)(=O)=O)CCC1Nc1nc2c(N3CCCCC3)c(-c3cn[nH]c3)ncn2n1` (centres unmarked) [Example 50, N-(3-Methyl-1-(methylsulfonyl)piperidin-4-yl)-8-(piperidin-1-yl)-7-(1H-pyrazol-4-yl)-[1,2,4]triazolo[1,5-c]pyrimidin-2-amine] gave a half-inhibitory concentration (IC50) of no more than 20 nM.

With `COCCN1CCN(c2c(-c3cn[nH]c3)ncn3nc(NC4CCN(S(C)(=O)=O)CC4)nc23)CC1` [Example 51, 8-(4-(2-Methoxyethyl)piperazin-1-yl)-N-(1-(methylsulfonyl)piperidin-4-yl)-7-(1H-pyrazol-4-yl)-[1,2,4]triazolo[1,5-c]pyrimidin-2-amine], the IC50 was no more than 20 nM.

With `CS(=O)(=O)N1CCC(Nc2nc3c(N4CCCC4)c(-c4cn[nH]c4)ncn3n2)CC1` [Example 52, N-(1-(Methylsulfonyl)piperidin-4-yl)-7-(1H-pyrazol-4-yl)-8-(pyrrolidin-1-yl)-[1,2,4]triazolo[1,5-c]pyrimidin-2-amine], the IC50 was no more than 20 nM.

On to `CC(C)Oc1c(-c2cn[nH]c2)ncn2nc(N[C@H]3CCN(S(=O)(=O)C4CC4)C[C@H]3C)nc12` [Example 53, N-((3R,4S)-1-(Cyclopropylsulfonyl)-3-methylpiperidin-4-yl)-8-isopropoxy-7-(1H-pyrazol-4-yl)-[1,2,4]triazolo[1,5-c]pyrimidin-2-amine], for which the IC50 was no more than 20 nM.

`CCS(=O)(=O)N1CC[C@H](Nc2nc3c(OC(C)C)c(-c4cn[nH]c4)ncn3n2)[C@H](C)C1` [Example 54, N-((3R,4S)-1-(Ethylsulfonyl)-3-methylpiperidin-4-yl)-8-isopropoxy-7-(1H-pyrazol-4-yl)-[1,2,4]triazolo[1,5-c]pyrimidin-2-amine] gave an IC50 of no more than 20 nM.

`CCN(C)CCCS(=O)(=O)N1CC[C@H](Nc2nc3c(OC(C)C)c(-c4cn[nH]c4)ncn3n2)[C@H](C)C1` [Example 55, N-((3R,4S)-1-((3-(Ethyl(methyl)amino)propyl)sulfonyl)-3-methylpiperidin-4-yl)-8-isopropoxy-7-(1H-pyrazol-4-yl)-[1,2,4]triazolo[1,5-c]pyrimidin-2-amine] returned an IC50 of no more than 20 nM.

In turn, `CC(C)Oc1c(-c2cn[nH]c2)ncn2nc(N[C@H]3CCN(S(=O)(=O)CCCN(C)C)C[C@H]3C)nc12` [Example 56, N-((3R,4S)-1-((3-(Dimethylamino)propyl)sulfonyl)-3-methylpiperidin-4-yl)-8-isopropoxy-7-(1H-pyrazol-4-yl)-[1,2,4]triazolo[1,5-c]pyrimidin-2-amine] registered an IC50 of no more than 20 nM.

`CC(C)Oc1c(-c2cn[nH]c2)ncn2nc(N[C@H]3CCN(S(=O)(=O)CCCN(C)C(C)C)C[C@H]3C)nc12` [Example 57, 8-Isopropoxy-N-((3R,4S)-1-((3-(isopropyl(methyl)amino)propyl)sulfonyl)-3-methylpiperidin-4-yl)-7-(1H-pyrazol-4-yl)-[1,2,4]triazolo[1,5-c]pyrimidin-2-amine] came in with an IC50 of no more than 20 nM.

Take `CC(C)Oc1c(-c2cn[nH]c2)ncn2nc(N[C@H]3CCN(S(=O)(=O)CCCN4CCCCC4)C[C@H]3C)nc12` [Example 58, 8-Isopropoxy-N-((3R,4S)-3-methyl-1-((3-(piperidin-1-yl)propyl)sulfonyl)piperidin-4-yl)-7-(1H-pyrazol-4-yl)-[1,2,4]triazolo[1,5-c]pyrimidin-2-amine]: the half-inhibitory concentration (IC50) is no more than 20 nM.

`CC(C)Oc1c(-c2cn[nH]c2)ncn2nc(N[C@H]3CCN(S(=O)(=O)CCCN4CCCC4)C[C@H]3C)nc12` [Example 59, 8-Isopropoxy-N-((3R,4S)-3-methyl-1-((3-(pyrrolidin-1-yl)propyl)sulfonyl)piperidin-4-yl)-7-(1H-pyrazol-4-yl)-[1,2,4]triazolo[1,5-c]pyrimidin-2-amine] had a half-inhibitory concentration (IC50) of no more than 20 nM.

`CCN(CC)CCCS(=O)(=O)N1CC[C@H](Nc2nc3c(OC(C)C)c(-c4cn[nH]c4)ncn3n2)[C@H](C)C1` [Example 60, N-((3R,4S)-1-((3-(Diethylamino)propyl)sulfonyl)-3-methylpiperidin-4-yl)-8-isopropoxy-7-(1H-pyrazol-4-yl)-[1,2,4]triazolo[1,5-c]pyrimidin-2-amine] showed a concentration for half-maximal inhibition (IC50) of no more than 20 nM.
